The values below come from PMC4897788, “Design, biological evaluation and 3D QSAR studies of novel dioxin-containing pyrazoline derivatives with thiourea skeleton as selective HER-2 inhibitors” (Scientific Reports, 2016).

The test system of series [1] is MCF-7 human breast cancer cell line. Kind of series: Anti-proliferation assay (MTT), MCF-7. In kind it is cell-based. The following applies: MCF7, 24 h. Here is the method: (§1) MCF-7 human breast cancer cells was cultured in DMEM/10% fetal bovine serum, in 5% CO2 water saturated atmosphere at 37 °C. MDA-MB-453 human breast cancer cells was cultured in L-15 medium in 100% air at 37 °C. Cell suspensions (10000/mL) were prepared and 100 μL/well dispensed into 96-well plates (Costar) giving 1000 cells/well. The plates were returned to the incubator for 24 h to allow the cells to reattach. These compounds were initially prepared at 20 mM in DMSO. Aliquots (200 μL) were diluted into 20 mL culture medium giving 200 μM, and 10 serial dilutions of 3× prepared. Aliquots (100 μL) of each dilution were added to the wells, giving doses ranging from 100 μM to 0.005 μM. After a further incubated at 37 °C for 24 h in a humidified atmosphere with 5% CO2, the cell viability was assessed by the conventional 3-(4,5-dimethylthiazol-2-yl)-2,5-diphenyltetrazolium bromide (MTT) reduction assay and carried out strictly according to the manufacturer instructions (Sigma). The absorbance at 590 nm was recorded using LX300 Epson Diagnostic micro-plate reader. Then GI50 was calculated using SPSS 13.0 software.

Series [2] has as its system MDA-MB-453 human breast cancer cell line. As to the kind of experiment: Anti-proliferation assay (MTT), MDA-MB-453. In kind it is cell-based. The following applies: 24 h. Here is the method: as §1
The target in another series is T1, VEGFR-2 (Homo sapiens, UniProt P35968).
T1 construct: either the phosphorylated or nonphosphorylated form of the VEGFR-2 kinase domain
Kind of series: VEGFR-2 inhibitory assay. In kind it is biochemical. Here is the method:
In a 96-well plate, 5 nM/L of either the phosphorylated or nonphosphorylated form of the VEGFR-2 kinase domain was incubated with selected compounds (10-point titration ranging from 4 μM to 0.1 μM), 1 μM/L gastrin substrate, 20 mM/L Tris-HCl, pH 7.5, 10 mM/L MgCl2, 100 mM/L NaCl, 1.5 mM/L EGTA, 1 mM/L DTT, 0.2 mM/L sodium orthovanadate, and 20 μg/mL BSA for 30 min at 25 °C. ATP was added at a final concentration of 11.8 μM and incubated for 60 min at room temperature. Eu-labeled antiphosphotyrosine pT66 antibody (Perkin- Elmer) was then used for detection. The fluorescence at 665 nM was measured with a Wallac Victor plate reader using a time delay of 50 μs. The experiment was performed for three independent times and in triplicate each time.

The target in a further series is T2, FAK (Homo sapiens, UniProt Q05397).
T2 construct: human-recombinant full-length FAK
As to the kind of experiment: FAK inhibitory assay (Kinase-Glo). In kind it is biochemical. Here is the method: Selected compounds were tested against FAK. In a typical study, human-recombinant full-length FAK was incubated in kinase buffer containing ATP and the substrate for 4 h at room temperature with or without the presence of the corresponding coumpounds. The final concentration of drug as 100, 30, 10, 3 μg/mL. The remaining ATP in solution was then quantified utilizing the Kinase-Glo-luminescence kit (Promega).

In the next series the test system is human erythrocytes. As to the kind of experiment: Hemolysis test. In kind it is cell-based. The note with it: lytic concentration 30%. Here is the method:
Hemolytic activity was assayed using fresh capillary human blood. Erythrocytes were collected by centrifuging the blood three times in chilled phosphate buffered saline (PBS at 4 °C) at 1000 × g for 10 min. The final pellet was resuspended in PBS to give a 2% w/v solution. Using a microtitre plate, 100 μL of the erythrocyte solution was added to dextran, PLL, stearyl-PLL or stearyl-PLL+ LDL (1–1000/μg/mL) in a volume of […]. Samples were then incubated for 3 h and the microtitre plate was centrifuged then at 1000 × g for 10 min and the supernatants (100 μL) transferred into a new microtitre plate. Hemoglobin release was determined spectrophotometrically using a microtitre plate reader (absorbance at 550 nm). Results were expressed as the amount of released hemoglobin induced by the compounds as a percentage of the total. Hemolysis test was tested according to the guide of biological evaluation of medical device (SFDA, China).

The next series concerns the target T3, HER-3 (Homo sapiens, UniProt P21860).
T3 construct: HER-3 cytoplasmic domain (HER-3-CD, amino acids 665–1339); His6 (N); made in house
T3 sequence (P21860 665-1339): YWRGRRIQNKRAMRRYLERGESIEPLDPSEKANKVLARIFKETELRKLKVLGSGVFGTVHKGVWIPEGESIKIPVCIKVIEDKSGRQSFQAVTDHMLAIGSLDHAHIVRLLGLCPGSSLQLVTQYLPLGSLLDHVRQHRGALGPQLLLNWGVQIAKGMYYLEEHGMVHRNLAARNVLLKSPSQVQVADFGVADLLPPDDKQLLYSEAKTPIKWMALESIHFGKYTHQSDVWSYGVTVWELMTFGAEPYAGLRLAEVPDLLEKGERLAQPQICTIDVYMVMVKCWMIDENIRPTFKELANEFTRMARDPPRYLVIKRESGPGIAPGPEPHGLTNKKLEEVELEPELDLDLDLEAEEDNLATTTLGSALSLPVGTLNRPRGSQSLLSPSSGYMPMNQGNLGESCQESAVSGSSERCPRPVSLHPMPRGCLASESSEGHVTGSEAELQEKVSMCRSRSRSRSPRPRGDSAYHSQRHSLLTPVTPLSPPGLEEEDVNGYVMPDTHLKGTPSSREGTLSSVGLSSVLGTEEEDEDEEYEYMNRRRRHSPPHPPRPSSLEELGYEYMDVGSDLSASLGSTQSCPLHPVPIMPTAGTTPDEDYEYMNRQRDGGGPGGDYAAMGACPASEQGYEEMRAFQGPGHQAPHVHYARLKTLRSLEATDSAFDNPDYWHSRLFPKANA
Kind of series: HER-3 inhibitory assay. Format: biochemical. Here is the method:
A sequence that encodes (His)6 was located at the 5′ upstream to the HER-2 and EGFR sequences. Sf-9 cells were infected for 3 days for protein expression. Sf-9 cell pellets were solubilized at 0 °C in a buffer at pH 7.4 containing 50 mM HEPES, 10 mM NaCl, 1% Triton, 10 μM ammonium molybdate, 100 μM sodium vanadate, 10 μg/mL aprotinin, 10 μg/mL leupeptin, 10 μg/mL pepstatin, and 16 μg/mL benzamidine, HCl for 20 min followed by 20 min centrifugation. Crude extract supernatant was passed through an equilibrated Ni–NTA superflow packed column and washed with 10 mM and then 100 mM imidazole to remove nonspecifically bound material. Histidine-tagged proteins were eluted with 250 and 500 mM imidazole and dialyzed against 50 mM NaCl, 20 mM HEPES, 10% glycerol and 1 μg/mL each of aprotinin, leupeptin, and pepstatin for 2 h. The entire purification procedure was performed at 4 °C or on ice.
A 1.8 Kb cDNA encoded for human HER-3 cytoplasmic domain (HER-3-CD, amino acids 665–1339) was applied to perform the experiment using the same method as EGFR/HER-2.

For another series, the target named is HER-2 (Homo sapiens, UniProt P04626). Kind of series: HER-2 autophosphorylation kinase assay (DELFIA/time-resolved fluorometry). The note with it: for SI EGFR/HER-2: selectivity index, IC50 EGFR/IC50 HER-2.
For the next series, the target named is EGFR (Homo sapiens, UniProt P00533). Kind of series: EGFR autophosphorylation kinase assay (DELFIA/time-resolved fluorometry).
Series [3] is described as follows: Cytotoxicity test (MTT), NIH-3T3. In kind it is cell-based. The note with it: mouse, NIH-3T3 mouse embryonic fibroblast cells, NIH3T3. Here is the method:
The cytotoxic activity in vitro was measured against mouse fibroblast NIH-3T3 cell using the MTT assay. Cells were cultured in a 96-well plate at a density of 5 × 10^5 cells and different concentrations of compounds were respectively added to each well. The incubation was permitted at 37 °C, 5% CO2 atmosphere for 24 h before the cytotoxicity assessments. 20 μL MTT reagent (4 mg/mL) was added per well 4 h before the end of the incubation. Four hours later, the plate was centrifuged at 1200 rcf for 5 min and the supernatants were removed, each well was added with 200 μL DMSO. The absorbance was measured at a wavelength of 490 nm (OD 490 nm) on an ELISA microplate reader. Three replicate wells were used for each concentration and each assay was measured three times, after which the average of IC50 was calculated. The cytotoxicity of each compound was expressed as the concentration of compound that reduced cell viability to 50% (IC50).

T2 sequence (Q05397 whole entry): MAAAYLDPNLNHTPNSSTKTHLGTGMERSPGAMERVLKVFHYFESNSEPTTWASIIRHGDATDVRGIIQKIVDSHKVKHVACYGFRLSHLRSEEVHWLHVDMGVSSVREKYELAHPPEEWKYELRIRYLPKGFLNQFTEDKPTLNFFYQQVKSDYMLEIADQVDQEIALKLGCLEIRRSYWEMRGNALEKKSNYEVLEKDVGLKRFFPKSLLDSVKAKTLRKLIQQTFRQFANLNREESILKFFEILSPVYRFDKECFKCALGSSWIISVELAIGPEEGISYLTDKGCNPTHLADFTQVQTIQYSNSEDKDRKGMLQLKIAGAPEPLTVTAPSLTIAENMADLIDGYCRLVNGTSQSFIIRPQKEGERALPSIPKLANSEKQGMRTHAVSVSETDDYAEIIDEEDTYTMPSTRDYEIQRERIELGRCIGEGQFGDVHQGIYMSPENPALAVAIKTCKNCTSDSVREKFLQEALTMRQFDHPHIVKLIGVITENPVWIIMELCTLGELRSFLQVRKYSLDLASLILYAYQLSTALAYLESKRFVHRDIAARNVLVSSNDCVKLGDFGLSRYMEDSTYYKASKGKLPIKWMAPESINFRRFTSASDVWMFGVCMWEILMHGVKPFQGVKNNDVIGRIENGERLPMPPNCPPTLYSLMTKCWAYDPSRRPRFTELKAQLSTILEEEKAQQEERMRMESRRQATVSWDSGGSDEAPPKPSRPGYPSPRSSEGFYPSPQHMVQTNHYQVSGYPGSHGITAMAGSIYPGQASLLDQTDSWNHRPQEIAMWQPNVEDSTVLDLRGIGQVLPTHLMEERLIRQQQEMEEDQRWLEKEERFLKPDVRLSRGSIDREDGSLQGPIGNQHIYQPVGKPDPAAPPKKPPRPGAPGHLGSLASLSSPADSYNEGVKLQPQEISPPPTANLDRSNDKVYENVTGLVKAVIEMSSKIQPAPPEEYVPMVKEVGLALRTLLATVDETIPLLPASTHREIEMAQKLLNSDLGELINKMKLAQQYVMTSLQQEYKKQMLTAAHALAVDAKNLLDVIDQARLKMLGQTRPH
Sequence of HER-2 (P04626 676-1245): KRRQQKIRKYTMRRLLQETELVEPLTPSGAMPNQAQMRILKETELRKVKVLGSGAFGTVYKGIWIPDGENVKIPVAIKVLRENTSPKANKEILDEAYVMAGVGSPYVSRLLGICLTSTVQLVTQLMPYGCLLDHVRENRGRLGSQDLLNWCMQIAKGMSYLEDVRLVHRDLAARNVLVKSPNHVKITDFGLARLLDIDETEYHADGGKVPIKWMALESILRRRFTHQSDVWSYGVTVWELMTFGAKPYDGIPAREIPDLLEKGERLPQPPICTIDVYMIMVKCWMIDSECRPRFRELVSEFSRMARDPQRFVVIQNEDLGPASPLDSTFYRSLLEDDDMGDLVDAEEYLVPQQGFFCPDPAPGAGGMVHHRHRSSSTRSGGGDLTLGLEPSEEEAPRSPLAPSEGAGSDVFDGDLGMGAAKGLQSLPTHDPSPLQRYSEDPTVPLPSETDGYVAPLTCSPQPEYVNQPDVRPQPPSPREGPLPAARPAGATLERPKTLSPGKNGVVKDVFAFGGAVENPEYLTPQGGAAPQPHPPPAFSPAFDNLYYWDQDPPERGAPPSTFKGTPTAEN
T1 sequence (P35968 834-1162 limits assumed, species assumed): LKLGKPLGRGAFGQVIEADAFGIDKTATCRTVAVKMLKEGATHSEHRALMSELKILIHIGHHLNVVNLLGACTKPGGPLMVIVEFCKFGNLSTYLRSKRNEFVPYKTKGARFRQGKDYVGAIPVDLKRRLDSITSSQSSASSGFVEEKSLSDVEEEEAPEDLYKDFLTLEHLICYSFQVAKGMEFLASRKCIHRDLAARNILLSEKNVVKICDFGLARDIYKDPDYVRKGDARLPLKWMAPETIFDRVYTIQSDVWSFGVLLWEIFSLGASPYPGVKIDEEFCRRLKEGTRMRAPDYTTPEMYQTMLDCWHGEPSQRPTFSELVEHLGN
Sequence of EGFR (P00533 669-1210): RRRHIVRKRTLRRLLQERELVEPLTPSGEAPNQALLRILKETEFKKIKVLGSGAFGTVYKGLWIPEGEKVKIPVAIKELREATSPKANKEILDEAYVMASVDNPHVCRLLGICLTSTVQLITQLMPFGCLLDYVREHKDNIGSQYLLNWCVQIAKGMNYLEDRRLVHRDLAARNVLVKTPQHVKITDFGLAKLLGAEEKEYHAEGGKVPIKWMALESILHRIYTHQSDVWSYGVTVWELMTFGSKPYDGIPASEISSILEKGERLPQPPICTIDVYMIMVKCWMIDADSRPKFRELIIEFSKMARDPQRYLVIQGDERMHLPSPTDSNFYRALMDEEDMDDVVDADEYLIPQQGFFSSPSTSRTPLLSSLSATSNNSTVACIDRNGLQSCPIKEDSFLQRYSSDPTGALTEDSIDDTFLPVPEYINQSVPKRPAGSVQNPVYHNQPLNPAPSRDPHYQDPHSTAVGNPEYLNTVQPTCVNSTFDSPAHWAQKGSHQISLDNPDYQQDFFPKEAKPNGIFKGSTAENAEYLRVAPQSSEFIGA

A word on the GI50: it is the concentration at which growth is held to half of that of the control. A high value points to lower sensitivity of the cells. Broadly, the IC50 is the concentration that inhibits the measured activity by half. Low values mean greater potency, high ones weaker potency. For the molecule `NC(=S)N1N=C(c2ccc3c(c2)OCCO3)CC1c1ccc(Br)cc1` (stereo not drawn) [Compound C13, 5-(4-bromophenyl)-3-(2,3-dihydrobenzo[b][1,4]dioxin-6-yl)-4,5-dihydro-1H-pyrazole-1-carbothioamide], the GI50 turned out to be 123 ± 11.2 µM in [1] and 3.24 ± 0.3 µM in [2]. Also, the IC50 amounted to 25.8 ± 2.41 µM on VEGFR-2; 36.5 ± 3.42 µM against FAK; 2.46 ± 0.23 µM at HER-3; 0.8 ± 0.07 µM against HER-2; 82 ± 7.84 µM against EGFR. For the same molecule, in the series with human erythrocytes, the “Hemolysis LC30” value is more than 10000 µg/mL. In addition, the “SI EGFR/HER-2” value on HER-2 is listed as 102.5. The molecule also came in with a GI50 at 24 h in [3] of 148 ± 2.02 µM.

On to `CSc1ccc(C2CC(c3ccc4c(c3)OCCO4)=NN2C(N)=S)cc1` (stereo not drawn) [Compound C15, 3-(2,3-dihydrobenzo[b][1,4]dioxin-6-yl)-5-(4-(methylthio)phenyl)-4,5-dihydro-1H-pyrazole-1-carbothioamide], for which the GI50 in series [1] turned out to be 12.1 ± 1.17 µM; in series [2], 0.95 ± 0.08 µM. Also, the IC50 was 8.75 ± 0.77 µM against VEGFR-2; 40.3 ± 3.88 µM at FAK; 17.9 ± 1.48 µM against HER-3; 0.29 ± 0.02 µM on HER-2; 27.5 ± 2.46 µM against EGFR. Moreover, the “Hemolysis LC30” value with human erythrocytes is more than 10000 µg/mL. The “SI EGFR/HER-2” value at HER-2 is 94.8. This molecule came in with a concentration for 50% growth inhibition (GI50) at 24 h in series [3] of 154 ± 1.75 µM.

As to `NC(=S)N1N=C(c2ccc3c(c2)OCCO3)CC1c1ccc(C(F)(F)F)cc1` (stereo not drawn) [Compound C17, 3-(2,3-dihydrobenzo[b][1,4]dioxin-6-yl)-5-(4-(trifluoromethyl)phenyl)-4,5-dihydro-1H-pyrazole-1-carbothioamide], the GI50 in [1] amounted to 96.4 ± 9.22 µM; in series [2], 0.55 ± 0.02 µM. Further, the IC50 at VEGFR-2 is 5.16 ± 0.5 µM; on FAK, 30.1 ± 2.76 µM; against HER-3 it was 8.45 ± 0.78 µM; against HER-2, 0.21 ± 0.02 µM; on EGFR, 79.7 ± 7.01 µM. Besides, the “Hemolysis LC30” value in the series with human erythrocytes was more than 10000 µg/mL. Also, at HER-2, the “SI EGFR/HER-2” value amounted to 379.6. The GI50 at 24 h in series [3] was 185 ± 3.15 µM.
